What was measured:
[1] = tested on: hΔCB1; design: method as in unpublished results; details: HEK293 cells; ref unpublished results; cited from earlier work
[2] = tested on: T1, hΔCB1 receptor; experiment: Saturation binding assays (filtration and size-exclusion) with cell-free expressed hΔCB1; design: species or system human; details: cell-free expressed from pET15hΔCB1his6 and pET26shΔCB1his6, with nanodiscs, no T4 lysozyme
T1 construct: hCB1 receptor with an N-terminal 102 amino acid truncated residues (hΔCB1); host or cells: cell-free expression with nanodiscs
Procedure: The radioactive binding assays were performed with [^3H] CP-55,940 radioligand.

Structure (SMILES) | effect of N-terminal 102 amino acid truncation on binding [1] | specific binding [2]
CCCCCCC(C)(C)c1ccc([C@@H]2C[C@H](O)CC[C@H]2CCCO)c(O)c1 [CP-55,940] | truncation does not affect the binding | –
CCCCCCC(C)(C)c1ccc([C@@H]2C[C@H](O)CC[C@H]2CCCO)c(O)c1 [[^3H] CP-55,940] | – | did not show any specific binding
